A word on the solubility: it is the concentration that dissolves in the medium under given conditions. A higher solubility goes with a readily soluble substance.

Series [1] is described as follows: Bioavailability of calcium citrate malate (statement). The note with it: even under neutral conditions.
The nature of the next series: physchem. The source says: The exact method for determining this is described hereinafter.
The method of solubility used to determine the data in Table I, is described in the Analytical Methods section below.

Regarding calcium citrate malate, the “bioavailability” value in series [1] is given as “bioavailable”. In turn, `O=C(O)CC(O)C(=O)O` (racemic) [calcium malate] gave a solubility in the series “physchem” of 660 mg/mL.
